Data taken from patent US20180207111A1, “IMMUNOTHERAPY FOR CASR-EXPRESSING CANCER (E.G. NEUROBLASTOMA)” (HOSPITAL SANT JOAN DE DEU, priority 2015, published 2018).

Key:
[1] = test system: LA-N-1 cells subcutaneous xenograft; test: In vivo neuroblastoma model: tumor growth / event-free survival; set-up: species or system mice; settings: 10 mg/kg/day oral gavage 6 days per week vs vehicle; log-rank P=0.034; FIG. 2A
Experimental: An in vivo model of neuroblastoma was generated in four to six-week-old female athymic Nude-Foxn1 nu/nu mice (Charles Rivers), wherein LA-N-1 cells (10^7) were subcutaneously inoculated. Tumors were allowed to grow until dimensions reached 7×7 mm. Then mice were randomized to receive either vehicle (described below) or Cinacalcet (10 mg/kg/day) by oral gavage 6 days per week until tumor volume reached 2 cm^3. Cinacalcet was prepared with Mimpara® tablets (Amgen). Following homogenization of the Mimpara® tablets in a mortar, the resulting powder was reconstituted with 0.5% Tween 20 (20%, v/v) and carboxymethylcellulose (0.25%, w/v) to a final concentration of […]. Each dose contained 5 μL of this mixture per gram of mouse weight. Dimensions of tumors were measured thrice a week using a digital caliper. Tumor volume was calculated as L×W^2/2 in which “L” indicates length in mm and “W” indicates width in mm. At the end of the experiment (each mouse was sacrificed when the corresponding xenograft reached the final pre-determined volume 2 cm^3), tumors were excised and half of each specimen was frozen in liquid nitrogen for molecular analyses and the other was fixed in 10% formalin. For event-free survival (EFS) analysis, an event was defined as tumor size that exceeded 2 cm^3. The log-rank statistic was used to compare the EFS probabilities between groups. […]

SK-N-LP CaSR/GFP = test: RT-qPCR mRNA expression in SK-N-LP CaSR/GFP neuroblastoma cells grown with Cinacalcet; assay type: cell-based, Homo sapiens; settings: 1 μM Cinacalcet vs DMSO, up to 21 days
Experimental: (§1) Three neuroblastoma cell lines LA-N-1, SK-N-LP and SH-SY5Y were used for this purpose. […] No expression of the CaSR is detectable in SH-SY5Y either. Thus, SK-N-LP and SH-SY5Y were stably transfected with pCMV-CaSR-GFP or pCMV-GFP. All cell lines were grown in the presence of 1 μM Cinacalcet (Selleck Chemicals, S1260) or DMSO for 21 days in P100 plates. Morphology was assessed daily. Total RNA was isolated at days 1, 3, 5, 7, 10, 14 and 21. Several markers were analyzed by RT-qPCR using SYBRgreen and specific primers or Taqman technology and gene-specific Assays-on-Demand (Applied Biosystems) (Table 1).
(§2) These features reached maximal expression between days 7 and 14 (FIG. 1). […] Neuroblastoma cytodifferentiation is an indication of this tumor becoming more benign, less proliferative. […] Moreover, upregulation of these differentiation-associated genes and CTAs both in vitro and in vivo (see Examples 2-4) validates the proposed in vitro model (doses used, time of exposure, etc) as a good model to evaluate neuroblastoma response to treatment with Cinacalcet.

[2] = Plasmatic ionic Ca2+ and tolerability in xenograft-bearing mice; assay type: in vivo
Description: FIG. 2 comprises graphs showing (A) Effect of Cinacalcet treatment on survival (%) in an in vivo neuroblastoma model treated with Cinacalcet (triangle) or vehicle (circle) over time (days); (B) Plasmatic ionic Ca^2+ concentrations (mmol/L) in mice receiving Cinacalcet (triangle) or vehicle (circle) over time (weeks).
An in vivo model of neuroblastoma was generated in four to six-week-old female athymic Nude-Foxn1 nu/nu mice (Charles Rivers), wherein LA-N-1 cells (10^7) were subcutaneously inoculated. Tumors were allowed to grow until dimensions reached 7×7 mm. Then mice were randomized to receive either vehicle (described below) or Cinacalcet (10 mg/kg/day) by oral gavage 6 days per week until tumor volume reached 2 cm^3. Cinacalcet was prepared with Mimpara® tablets (Amgen). […] Dimensions of tumors were measured thrice a week using a digital caliper. Tumor volume was calculated as L×W^2/2 in which “L” indicates length in mm and “W” indicates width in mm. At the end of the experiment (each mouse was sacrificed when the corresponding xenograft reached the final pre-determined volume 2 cm^3), tumors were excised and half of each specimen was frozen in liquid nitrogen for molecular analyses and the other was fixed in 10% formalin. […]

[3] = test system: normal surrounding tissues; test: Genome-wide expression analysis of murine genes in xenograft RNAs, Affymetrix Mouse Gene Array 2.1 ST; assay type: in vivo
Experimental: Genome-wide expression analyses were performed using Affymetrix Human and Mouse Gene Array 2.1 ST (Affymetrix, reference number 902136 for human gene array and 902120 for mouse gene array) as per manufacturer's protocol. Procedures to analyze results included: Quality control of the arrays (following this step, xenograft C6 was removed from further analyses); filtering and normalization; selection of differentially expressed genes; single comparison (treated versus control samples); list of differentially expressed genes ranked by significance; Volcano plots showing the most differentially expressed genes; heatmaps of the clustered expression profiles; and analysis of biological significance through enrichment analysis against the Gene Ontologies, KEGG (Kyoto Encyclopedia of Genes and Genomes) and Ingenuity pathways.
In order to evaluate whether upregulation of CTAs was a tumor-specific effect or it was induced in normal surrounding tissues as well, a genome-wide expression analysis by means of microarrays was conducted using a chip to detect murine genes differentially expressed in the same RNAs analyzed in the human array.

SH-SY5Y CaSR/GFP = test: RT-qPCR mRNA expression in SH-SY5Y CaSR/GFP neuroblastoma cells grown with Cinacalcet; assay type: cell-based, Homo sapiens; settings: 1 μM Cinacalcet vs DMSO, up to 21 days
Experimental: as §1, §2

[4] = Mus musculus genes in xenograft RNAs, Cinacalcet vs vehicle, adjusted P 0.80678117

## C[C@@H](NCCCc1cccc(C(F)(F)F)c1)c1cccc2ccccc12 [Cinacalcet]
[1]
  Tumor growth (event-free survival, event = tumor size > 2 cm^3): significant tumor growth inhibition
SK-N-LP CaSR/GFP
  CTCFL mRNA fold increase: no expression
  MAGEA2 mRNA fold increase: 36.6 fold
  MAGEA3 mRNA fold increase: 155.4 fold
  NFL mRNA fold increase: 7.2 fold
  NTRK1 mRNA fold increase: 3.6 fold
  NTRK3 mRNA fold increase: 2.6 fold
  S100-β mRNA fold increase: 72.3 fold
  SSX4/4B mRNA fold increase: 69 fold
  TUBB3 mRNA fold increase: 2.8 fold
SK-N-LP CaSR/GFP; primer pair GAGE P1
  GAGE-P1 mRNA fold increase: 4.1 fold
SK-N-LP CaSR/GFP; primer pair GAGE P2
  GAGE-P2 mRNA fold increase: 5.7 fold
SK-N-LP CaSR/GFP; primer pair GAGE P3
  GAGE-P3 mRNA fold increase: 6.3 fold
[2]; mice, 10 mg/kg/day oral gavage, FIG. 2B
  Plasmatic ionic Ca2+ concentration: Mild, non-symptomatic, hypocalcemia
[2]; mouse, in vivo, po, 10 mg/kg/day
  Signs of toxicity: No signs of toxicity were observed
[3]; Mus musculus genes in xenograft RNAs, Cinacalcet vs vehicle, adjusted P 0.60678117
  Log fold change, murine probe 17395227 (Gm14399): 1.067
[3]; Mus musculus genes in xenograft RNAs, Cinacalcet vs vehicle, adjusted P 0.80676117
  Log fold change, murine probe 17262250 (Tgtp2//Tgtp1): 1.108
[3]; [4]
  Log fold change, murine probe 17302054 (Snora31): 1.105
  Log fold change, murine probe 17352957 (Dsc1): 1.033
  Log fold change, murine probe 17380529 (Gm14419//Gm14391//Gm6710): 1.033
  Log fold change, murine probe 17386477 (Gm11084): 1.567
  Log fold change, murine probe 17458439 (Gpnmb): 1.221
  Log fold change, murine probe 17483098 (Gdpd3): 1.309
  Log fold change, murine probe 17503825 (Mmp2): 1.046
  Log fold change, murine probe 17546762 (LOC101055644//Mid1//MID1): 1.088
  Log fold change, murine probe 17546774 (Erdr1//Dock9): 1.341
[3]; murine microarray, also when C9-C11 analyzed, no gene significant (adjusted P-value >0.05)
  Upregulation of CTAs in normal surrounding (murine) tissues: CTAs were not amongst the over-expressed genes
SH-SY5Y CaSR/GFP
  CTCFL mRNA fold increase: no expression
  MAGEA2 mRNA fold increase: 2.4 fold
  MAGEA3 mRNA fold increase: 14.6 fold
  NFL mRNA fold increase: 2.3 fold
  NTRK1 mRNA fold increase: 2.9 fold
  NTRK3 mRNA fold increase: 4.7 fold
  S100-β mRNA fold increase: 2.2 fold
  SSX4/4B mRNA fold increase: 3.45 fold
  TUBB3 mRNA fold increase: 1.7 fold
SH-SY5Y CaSR/GFP; primer pair GAGE P1
  GAGE-P1 mRNA fold increase: 1.4 fold
SH-SY5Y CaSR/GFP; primer pair GAGE P2
  GAGE-P2 mRNA fold increase: 7.9 fold
SH-SY5Y CaSR/GFP; primer pair GAGE P3
  GAGE-P3 mRNA fold increase: 2.5 fold
